Assays:
Assay in all cases: IA-DTB cysteine engagement
Type in all cases: binding
[1] = molecular target: T1, IFT43_C58 (Homo sapiens, UniProt Q96FT9); settings: 22Rv1 cells, 20 μM probe, 1 h, relative to DMSO
T1 construct: endogenous in cells; host or cells: 22Rv1
T1 sequence (Q96FT9 1-208): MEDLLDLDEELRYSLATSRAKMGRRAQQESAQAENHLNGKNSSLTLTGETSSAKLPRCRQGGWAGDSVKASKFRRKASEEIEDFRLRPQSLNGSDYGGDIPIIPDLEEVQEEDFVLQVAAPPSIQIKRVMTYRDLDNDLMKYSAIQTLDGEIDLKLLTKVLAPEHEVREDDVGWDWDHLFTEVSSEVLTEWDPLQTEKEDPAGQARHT
Procedure, shortened: (§1)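 First, cells are exposed to electrophilic probes in situ. Next, lysates are labeled with IA-DTB (1 h, ambient temperature), reduced, alkylated and trypsin-digested. Then, IA-DTB peptides are enriched on streptavidin, TMT-labeled and analyzed, with ratios taken against DMSO channels.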

[2] = molecular target: T2, CDKAL1_C556 (Homo sapiens, UniProt Q5VV42); settings: 22Rv1 cells, relative to DMSO; for % engagement CDKAL1_C556: 20 μM probe, 1 h; for % engagement CDKAL1_556: 5 μM probe, 1 h (FIG. 5B)
T2 construct: endogenous in cells; host or cells: 22Rv1
T2 sequence (Q5VV42 1-579): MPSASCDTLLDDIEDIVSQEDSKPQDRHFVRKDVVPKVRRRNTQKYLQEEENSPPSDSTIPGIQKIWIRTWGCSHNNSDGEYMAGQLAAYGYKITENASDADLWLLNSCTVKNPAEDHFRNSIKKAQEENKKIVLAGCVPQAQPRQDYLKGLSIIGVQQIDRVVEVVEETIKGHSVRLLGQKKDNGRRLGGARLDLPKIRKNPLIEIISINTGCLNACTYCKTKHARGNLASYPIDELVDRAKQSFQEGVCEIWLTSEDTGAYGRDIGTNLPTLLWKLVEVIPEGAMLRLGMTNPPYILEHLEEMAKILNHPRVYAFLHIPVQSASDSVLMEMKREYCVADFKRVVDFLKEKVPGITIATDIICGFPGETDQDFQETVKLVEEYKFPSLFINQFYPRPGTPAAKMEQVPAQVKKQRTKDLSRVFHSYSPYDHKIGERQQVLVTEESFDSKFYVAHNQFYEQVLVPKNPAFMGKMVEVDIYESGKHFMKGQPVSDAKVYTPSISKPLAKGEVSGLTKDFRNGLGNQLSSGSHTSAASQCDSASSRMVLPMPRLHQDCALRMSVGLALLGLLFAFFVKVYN
Procedure, shortened: as §1

[3] = molecular target: T3, ABHD16A_C205 (Homo sapiens, UniProt O95870); settings: 22Rv1 cells, relative to DMSO; for % engagement ABHD16A_C205: 20 μM probe, 1 h; for % engagement ABHD16A_205: 5 μM probe, 1 h (FIG. 5B)
T3 construct: endogenous in cells; host or cells: 22Rv1
T3 sequence (O95870 1-558): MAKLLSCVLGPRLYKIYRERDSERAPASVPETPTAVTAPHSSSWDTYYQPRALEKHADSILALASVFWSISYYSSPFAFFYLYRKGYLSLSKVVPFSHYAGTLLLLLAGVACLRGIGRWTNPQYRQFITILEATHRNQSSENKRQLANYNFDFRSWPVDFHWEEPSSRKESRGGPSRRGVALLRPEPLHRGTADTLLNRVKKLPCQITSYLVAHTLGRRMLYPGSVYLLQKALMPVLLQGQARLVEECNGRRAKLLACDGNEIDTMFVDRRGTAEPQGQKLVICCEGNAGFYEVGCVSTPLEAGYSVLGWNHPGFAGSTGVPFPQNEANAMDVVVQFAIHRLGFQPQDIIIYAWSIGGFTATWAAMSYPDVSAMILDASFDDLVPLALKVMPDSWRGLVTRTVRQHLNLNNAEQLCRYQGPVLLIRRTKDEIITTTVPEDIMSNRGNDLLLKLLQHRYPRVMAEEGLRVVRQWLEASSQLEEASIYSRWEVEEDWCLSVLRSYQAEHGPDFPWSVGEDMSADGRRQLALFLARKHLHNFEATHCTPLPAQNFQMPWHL
Procedure, shortened: as §1

Row | SMILES | % engagement IFT43_C58 [1] [%] | % engagement CDKAL1_C556 [2] [%] | % engagement ABHD16A_C205 [3] [%] | % engagement CDKAL1_556 [2] [%] | % engagement ABHD16A_205 [3] [%]
1 | C=CC(=O)N1C[C@@H](c2ccc(Br)cc2)[C@H]1C(=O)Nc1cccc2cccnc12 [MY-1A, (2S,3R)-1-acryloyl-3-(4-bromophenyl)-N-(quinolin-8-yl)azetidine-2-carboxamide] | 28.5 | 59.5 | 67.75 |  | 
2 | C=CC(=O)N1C[C@H](c2ccc(Br)cc2)[C@@H]1C(=O)Nc1cccc2cccnc12 [MY-1B, (2R,3S)-1-acryloyl-3-(4-bromophenyl)-N-(quinolin-8-yl)azetidine-2-carboxamide] | −17 | 91 | 80.25 | 79.33 | 83.67
3 | C=CC(=O)N1C[C@H](c2ccc(Br)cc2)[C@H]1C(=O)Nc1cccc2cccnc12 [MY-3A, (2S,3S)-1-acryloyl-3-(4-bromophenyl)-N-(quinolin-8-yl)azetidine-2-carboxamide] | 17 | 88.5 | 73.25 |  | 
4 | C=CC(=O)N1C[C@H](c2ccc(Br)cc2)[C@H]1C(=O)Nc1cccc2cccnc12 [MY-3B, (2S,3S)-1-acryloyl-3-(4-bromophenyl)-N-(quinolin-8-yl)azetidine-2-carboxamide] | 71.5 | 89 | 77.25 |  | 
5 | CC#CC(=O)N1C[C@H](c2ccc(Br)cc2)[C@@H]1C(=O)Nc1cccc2cccnc12 [MY-45B, (2R,3S)-3-(4-bromophenyl)-1-(but-2-ynoyl)-N-(quinolin-8-yl)azetidine-2-carboxamide] |  |  |  | 67.00 | 62.50

Source: US20250034216A1, “STEREOSELECTIVE COVALENT LIGANDS FOR ONCOGENIC AND IMMUNOLOGICAL PROTEINS” (The Scripps Research Institute, priority 2021, published 2025)
